Laboratory results from patent US20230233569A1 (Revolution Medicines, Inc., priority 2020, published 2023).
Values joined by “and” are separate entries in the source; they are usually repeats but may differ in a detail not shown here. Equal values may be shown once. Read-outs that look alike come from different tables or passages of the source.

Assays:
[1] = test system: K-Ras G12C (NCI-H358 cells); test: Potency assay: pERK (AlphaLISA SureFire or In-Cell Western); type: cell-based; settings: Homo sapiens, NCI-H358; H358 KRAS G12C; read-out: pERK EC50
How it was run: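 Cellular pERK decrease measured after 4 h compound exposure (37 °C, 5% CO2) of NCI-H358 cells, 10-point 3-fold series from 10 mM DMSO stock, duplicates. Detection either by In-Cell Western (IR-800CW secondary, DRAQ5 stain) or AlphaLISA SureFire Ultra p-ERK1/2; 4-parameter sigmoidal fit gave IC50.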

NRAS G12C = NRAS G12C (Homo sapiens, UniProt P01111+P62937, G12C); test: Disruption of BRAF RBD interaction with Ras (FRET / MOA assay, with Cyclophilin A); type: biochemical
NRAS G12C, sequence (P01111 whole entry G12C): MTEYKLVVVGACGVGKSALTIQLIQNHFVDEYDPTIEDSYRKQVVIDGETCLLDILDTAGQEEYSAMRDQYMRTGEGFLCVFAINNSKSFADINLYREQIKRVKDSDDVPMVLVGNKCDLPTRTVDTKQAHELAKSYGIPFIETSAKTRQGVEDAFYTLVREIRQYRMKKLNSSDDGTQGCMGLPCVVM
NRAS G12C, sequence (P62937 whole entry): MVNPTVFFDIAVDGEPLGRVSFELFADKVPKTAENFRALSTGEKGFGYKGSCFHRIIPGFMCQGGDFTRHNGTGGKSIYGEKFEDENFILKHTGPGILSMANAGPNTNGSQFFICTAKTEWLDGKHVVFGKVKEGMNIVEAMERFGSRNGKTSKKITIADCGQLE

KRAS G12S = KRAS G12S (Homo sapiens, UniProt P01116+P62937, G12S); test: as above; type: biochemical
KRAS G12S, sequence (P01116 1-169 isoform P01116-2 G12S limits assumed): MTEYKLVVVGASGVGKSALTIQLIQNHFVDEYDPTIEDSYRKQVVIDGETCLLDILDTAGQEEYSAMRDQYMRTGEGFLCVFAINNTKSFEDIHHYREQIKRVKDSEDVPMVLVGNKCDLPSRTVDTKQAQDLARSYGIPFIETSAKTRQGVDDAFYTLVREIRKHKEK
KRAS G12S, sequence (P62937 whole entry): as the sequence (P62937 whole entry) above
How it was run: (§1)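 Here, compound titrations (ten points, factor 3, from 30 μM final) act on nucleotide-bound K-Ras and Cyclophilin A, and ternary complex formation disrupts the RAF RBD interaction.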

KRAS G13C = KRAS G13C (Homo sapiens, UniProt P01116+P62937, G13C); test: as above; type: biochemical; settings: KRAS G13C; read-out: KRAS G13C FRET data IC50
KRAS G13C, sequence (P01116 1-169 isoform P01116-2 G13C): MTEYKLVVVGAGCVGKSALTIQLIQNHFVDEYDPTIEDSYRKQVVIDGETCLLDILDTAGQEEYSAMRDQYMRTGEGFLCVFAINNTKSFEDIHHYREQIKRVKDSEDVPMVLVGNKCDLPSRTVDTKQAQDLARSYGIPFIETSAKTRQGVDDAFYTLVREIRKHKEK
KRAS G13C, sequence (P62937 whole entry): as the sequence (P62937 whole entry) above
How it was run: as §1

KRAS G13D = KRAS G13D (Homo sapiens, UniProt P01116+P62937, G13D); test: as above; type: biochemical
KRAS G13D, sequence (P01116 1-169 isoform P01116-2 G13D limits assumed): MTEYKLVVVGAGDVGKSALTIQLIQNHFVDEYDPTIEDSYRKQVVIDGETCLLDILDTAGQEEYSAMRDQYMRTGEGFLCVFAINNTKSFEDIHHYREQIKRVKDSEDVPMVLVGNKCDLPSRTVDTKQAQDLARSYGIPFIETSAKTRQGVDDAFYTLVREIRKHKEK
KRAS G13D, sequence (P62937 whole entry): as the sequence (P62937 whole entry) above
How it was run: as §1

KRAS WT = KRAS WT (Homo sapiens, UniProt P01116+P62937); test: as above; type: biochemical
KRAS WT, sequence (P01116 1-169 isoform P01116-2 limits assumed): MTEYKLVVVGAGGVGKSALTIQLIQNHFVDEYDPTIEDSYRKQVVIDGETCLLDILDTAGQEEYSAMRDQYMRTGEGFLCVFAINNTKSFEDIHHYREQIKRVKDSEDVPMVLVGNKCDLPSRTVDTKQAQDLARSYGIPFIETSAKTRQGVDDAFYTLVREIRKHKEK
KRAS WT, sequence (P62937 whole entry): as the sequence (P62937 whole entry) above
How it was run: as §1

KRAS G12V = KRAS G12V (Homo sapiens, UniProt P01116+P62937, G12V); test: as above; type: biochemical
KRAS G12V, sequence (P01116 1-169 isoform P01116-2 G12V limits assumed): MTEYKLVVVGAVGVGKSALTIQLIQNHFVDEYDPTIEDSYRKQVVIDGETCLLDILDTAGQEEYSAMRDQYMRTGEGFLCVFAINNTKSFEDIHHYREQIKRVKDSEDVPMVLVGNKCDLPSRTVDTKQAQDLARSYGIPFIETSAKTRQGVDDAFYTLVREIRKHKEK
KRAS G12V, sequence (P62937 whole entry): as the sequence (P62937 whole entry) above
How it was run: as §1

KRAS G12D = KRAS G12D (Homo sapiens, UniProt P01116+P62937, G12D); test: as above; type: biochemical; settings: read-out: KRAS G12D FRET data, IC50
KRAS G12D, sequence (P01116 1-169 isoform P01116-2 G12D limits assumed): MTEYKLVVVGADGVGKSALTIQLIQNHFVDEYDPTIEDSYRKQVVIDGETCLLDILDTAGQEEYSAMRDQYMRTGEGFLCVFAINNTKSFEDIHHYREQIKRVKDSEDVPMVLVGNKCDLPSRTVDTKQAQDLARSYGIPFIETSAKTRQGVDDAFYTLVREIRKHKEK
KRAS G12D, sequence (P62937 whole entry): as the sequence (P62937 whole entry) above
How it was run: as §1

KRAS G12C = KRAS G12C (Homo sapiens, UniProt P01116+P62937, G12C); test: as above; type: biochemical
KRAS G12C, sequence (P01116 1-169 isoform P01116-2 G12C): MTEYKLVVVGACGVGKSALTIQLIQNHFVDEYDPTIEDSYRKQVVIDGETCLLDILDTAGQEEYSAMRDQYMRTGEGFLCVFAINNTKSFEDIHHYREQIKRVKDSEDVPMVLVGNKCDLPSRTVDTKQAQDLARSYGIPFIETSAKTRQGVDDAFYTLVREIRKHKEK
KRAS G12C, sequence (P62937 whole entry): as the sequence (P62937 whole entry) above
How it was run: as §1

[2] = read-out: KRAS G12S FRET data, IC50
[3] = KRAS WT, read-out: KRAS WT FRET data IC50
[4] = KRAS G12V, read-out: KRAS G12V FRET data IC50
[5] = NRAS G12C, read-out: NRAS G12C FRET data IC50
[6] = KRAS G13D, read-out: KRAS G13D FRET data IC50
[7] = KRAS G12C, read-out: KRAS G12C FRET data IC50

Row | SMILES | EC50 [1] [nM] | IC50 (NRAS G12C; NRAS G12C FRET data IC50, NRAS G12C) | IC50 (KRAS G12S; KRAS G12S FRET data, IC50) [nM] | IC50 (KRAS G12S; [2]) | IC50 (KRAS G13C) | IC50 (KRAS G13D; KRAS G13D FRET data IC50, KRAS G13D) | IC50 (KRAS WT; KRAS WT FRET data IC50, KRAS WT) [nM] | IC50 (KRAS WT; [3]) [nM] | IC50 (KRAS G12V; KRAS G12V FRET data IC50, KRAS G12V) [nM] | IC50 (KRAS G12V; [4]) | IC50 (KRAS G12D) | IC50 (KRAS G12C; KRAS G12C FRET data IC50, KRAS G12C) | IC50 (NRAS G12C; [5]) | IC50 (KRAS G13D; [6]) [nM] | IC50 (KRAS G12C; [7])
1 | C=CC(=O)N1CC[C@H](C(=O)N(C)[C@H](C(=O)N[C@H]2Cc3cc(O)cc(c3)-c3ccc4c(c3)c(c(-c3cc(C)cnc3[C@H](C)OC)n4CC)CC(C)(C)COC(=O)[C@@H]3CCCN(N3)C2=O)C(C)C)C1 [Example A167] | < 5000 | 100 to 1000 nM and < 10 nM | 10 to 100 | 1000 to 10000 nM | 1000 to 10000 nM and 10 to 100 nM | 100 to 1000 nM and > 10000 nM | 10 to 100 | 1000 to 10000 | 10 to 100 | 1000 to 10000 nM | > 10000 nM and 100 to 1000 nM | 100 to 1000 nM and < 10 nM | – | – | –
2 | CC#CC(=O)N1CC[C@H](C(=O)N(C)[C@H](C(=O)N[C@H]2Cc3nc(cs3)-c3ccc4c(c3)c(c(-c3cccnc3[C@H](C)OC)n4CC)CC(C)(C)COC(=O)[C@@H]3CCCN(N3)C2=O)C(C)C)C1 [Example A168] | < 5000 | – | – | 1000 to 10000 nM | 1000 to 10000 nM | – | – | 1000 to 10000 | – | 1000 to 10000 nM | > 10000 nM | – | 1000 to 10000 nM | > 10000 | 100 to 1000 nM
3 | C=CS(=O)(=O)N1CC[C@H](C(=O)N(C)[C@H](C(=O)N[C@H]2Cc3nc(cs3)-c3ccc4c(c3)c(c(-c3cncnc3)n4CC)CC(C)(C)COC(=O)[C@@H]3CCCN(N3)C2=O)C(C)C)C1 [Example A170] | < 5000 | – | – | > 10000 nM | 1000 to 10000 nM | – | – | > 10000 | – | > 10000 nM | > 10000 nM | – | 1000 to 10000 nM | > 10000 | 1000 to 10000 nM
4 | C=CC(=O)N1CC[C@H](C(=O)N(C)[C@H](C(=O)N[C@H]2Cc3cc(O)cc(c3)-c3cnc4c(c3)c(c(-c3ccccc3CCOC)n4CC)CC(C)(C)COC(=O)[C@@H]3CCCN(N3)C2=O)C(C)C)C1 [Example A210] | < 5000 | – | – | 1 µM to 10 µM and > 10 µM (3×) | > 10000 nM | – | – | > 10000 | – | 1 µM to 10 µM and > 10 µM (3×) | > 10000 nM | – | 100 nM to 1 µM and 1 µM to 10 µM and > 10 µM (2×) | > 10000 | 100 nM to 1 µM and 1 µM to 10 µM and > 10 µM (2×)
5 | C=CC(=O)N1CC[C@H](C(=O)N(C)[C@H](C(=O)N[C@H]2Cc3cc(O)cc(c3)-c3ccc4c(c3)c(c(-c3ccnc5c3[C@@H](OC)CC5)n4CC)CC(C)(C)COC(=O)[C@@H]3CCCN(N3)C2=O)C(C)C)C1 [Example A275] | < 5000 | – | – | 10 to 100 nM | 10 to 100 nM | – | – | 100 to 1000 | – | 10 to 100 nM | 100 to 1000 nM | – | 10 to 100 nM | 100 to 1000 | 10 to 100 nM
6 | C=CC(=O)N1CC[C@@H](N(C)C(=O)N(C)[C@H](C(=O)N[C@H]2Cc3nc(cs3)-c3ccc4c(c3)c(c(-c3cccnc3[C@H](C)OC)n4CC)CC(C)(C)COC(=O)[C@@H]3CCCN(N3)C2=O)C(C)C)C1 [Example A349] | < 5000 | – | – | 100 to 1000 nM | 100 to 1000 nM | – | – | 100 to 1000 | – | 100 to 1000 nM | 100 to 1000 nM | – | 10 to 100 nM | 100 to 1000 | 10 to 100 nM
7 | CCn1c(-c2cccnc2[C@H](C)OC)c2c3cc(ccc31)-c1csc(n1)C[C@H](NC(=O)[C@H](C(C)C)N(C)C(=O)N1CC(N(C)C(=O)C#CC(C)(C)N3CCC3)C1)C(=O)N1CCC[C@H](N1)C(=O)OCC(C)(C)C2 [Example A379] | < 5000 | – | – | 100 to 1000 nM | 10 to 100 nM | – | – | 100 to 1000 | – | 100 to 1000 nM | 1000 to 10000 nM | – | 10 to 100 nM | 100 to 1000 | < 10 nM
8 | CCn1c(-c2cccnc2[C@H](C)OC)c2c3cc(ccc31)N1CCO[C@@](C)(CC(NC(=O)[C@H](C(C)C)N(C)C(=O)C3(F)CCN(C(=O)C#CC(C)(C)N(C)C)CC3)C(=O)N3CCC[C@H](N3)C(=O)OCC(C)(C)C2)C1 (stereo partly drawn) [Example A550] | < 5000 | – | – | 1000 to 10000 nM | 100 to 1000 nM | – | – | 100 to 1000 | – | 100 to 1000 nM | 1000 to 10000 nM | – | < 10 nM | 1000 to 10000 | < 10 nM
9 | C=CC(=O)N1CCO[C@H]2CN(C(=O)N(C)[C@H](C(=O)N[C@H]3CN4CCC=C(C4)c4ccc5c(c4)c(c(-c4cccnc4[C@H](C)OC)n5CC)CC(C)(C)COC(=O)[C@@H]4CCCN(N4)C3=O)C(C)C)C[C@H]21 [Example A552] | < 5000 | – | – | 1000 to 10000 nM | 10 to 100 nM | – | – | 100 to 1000 | – | 1000 to 10000 nM | 1000 to 10000 nM | – | 10 to 100 nM | 1000 to 10000 | 10 to 100 nM
10 | CO[C@@H](COC1CN(C(=O)C#CC(C)(C)N(C)C)C1)C(=O)N[C@H]1Cc2cccc(c2)-c2ccc3c(c2)c(c(-c2cccnc2[C@H](C)OC)n3CC(F)(F)F)CC(C)(C)COC(=O)[C@@H]2CCCN(N2)C1=O [Example A556] | < 5000 | – | – | > 10000 nM | 1000 to 10000 nM | – | – | 1000 to 10000 | – | 1000 to 10000 nM | > 10000 nM | – | < 10 nM | > 10000 | < 10 nM
11 | CCn1c(-c2cccnc2[C@H](C)OC)c2c3cc(ccc31)-c1cccc(c1)C[C@H](NC(=O)[C@H](C(C)C)N1CC[C@]3(CCN(C(=O)C#C[C@]4(N(C)C)CCOC4)C3)C1=O)C(=O)N1CCC[C@H](N1)C(=O)OCC(C)(C)C2 [Example A559] | < 5000 | – | – | 1000 to 10000 nM | 100 to 1000 nM | – | – | 1000 to 10000 | – | 1000 to 10000 nM | 1000 to 10000 nM | – | 10 to 100 nM | 1000 to 10000 | 10 to 100 nM
12 | C=CC(=O)N1CCOC2(CCN(C(=O)N(C)[C@H](C(=O)N[C@H]3CN4CCC=C(C4)c4ccc5c(c4)c(c(-c4cccnc4[C@H](C)OC)n5CC)CC(C)(C)COC(=O)[C@@H]4CCCN(N4)C3=O)C(C)C)CC2)C1 [Example A563] | < 5000 | – | – | 1000 to 10000 nM | 100 to 1000 nM | – | – | 1000 to 10000 | – | 1000 to 10000 nM | > 10000 nM | – | 100 to 1000 nM | 1000 to 10000 | 100 to 1000 nM
13 | CCn1c(-c2cccnc2[C@H](C)OC)c2c3cc(ccc31)-c1cccc(c1)C[C@H](NC(=O)[C@H](C(C)C)N1CC[C@]3(CCN(C(=O)C#C[C@@H]4COCCN4C4COC4)C3)C1=O)C(=O)N1CCC[C@H](N1)C(=O)OCC(C)(C)C2 [Example A565] | < 5000 | – | – | 1000 to 10000 nM | 1000 to 10000 nM | – | – | > 10000 | – | 1000 to 10000 nM | > 10000 nM | – | 100 to 1000 nM | > 10000 | 100 to 1000 nM
